In patent US8058264B2, “Pharmaceutical compositions comprising CB1 cannabinoid receptor antagonists and potassium channel openers for the treatment of obesity and related conditions” (Abbott Products GmbH, priority 2004, dated 2011):

Tests used:
fatty Zucker rat = experiment: Acute oral glucose tolerance test (OGTT) in the fatty Zucker rat; type: in vivo; conditions: acute administration (over a period of 1 day)
Kir6.2/SUR1 KATP channel = experiment: Opening of the Kir6.2/SUR1 KATP channel; type: biochemical
obese patients = conditions: chronic treatment, e.g. over a period of 1 year; cited from earlier work

With `Cc1c(C(=O)NN2CCCCC2)nn(-c2ccc(Cl)cc2Cl)c1-c1ccc(Cl)cc1` [5-(4-chlorophenyl)-1-(2,4-dichlorophenyl)-4-methyl-N-piperidin-1-yl-1H-pyrazole-3-carboxamide] the “glucose plasma levels in OGTT” value (fatty Zucker rat) was “strong increase in glucose plasma levels”, the “insulin release in OGTT” value (fatty Zucker rat) was “significantly reduced inhibition of insulin release” and the “opener activity at the Kir6.2/SUR1 KATP channel” value (Kir6.2/SUR1 KATP channel) was “potent opener”. The “glucose tolerance and insulin resistance in obese patients” value (obese patients) was “improve glucose tolerance and insulin resistance”.
